Reference: ChEMBL document CHEMBL5291721, “A preclinical secondary pharmacology resource illuminates target-adverse drug reaction associations of marketed drugs” (Nat Commun, 2023)

Assays:
[1] = molecular target: T1, Type-1 angiotensin II receptor (Homo sapiens, UniProt P30556)
T1 sequence (P30556 whole entry): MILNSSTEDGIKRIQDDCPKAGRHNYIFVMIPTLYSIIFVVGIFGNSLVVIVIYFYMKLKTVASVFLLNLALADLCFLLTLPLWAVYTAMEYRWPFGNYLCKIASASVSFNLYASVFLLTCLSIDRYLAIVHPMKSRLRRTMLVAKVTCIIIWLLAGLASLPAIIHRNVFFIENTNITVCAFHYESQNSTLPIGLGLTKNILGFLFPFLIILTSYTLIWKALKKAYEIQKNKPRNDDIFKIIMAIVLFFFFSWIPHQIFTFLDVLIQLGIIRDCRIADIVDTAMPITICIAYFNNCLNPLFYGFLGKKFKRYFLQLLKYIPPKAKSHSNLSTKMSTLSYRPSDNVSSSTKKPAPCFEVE

Melanocortin receptor 3 = Melanocortin receptor 3 (Homo sapiens, UniProt P41968)
Vasopressin V1a receptor = Vasopressin V1a receptor (Homo sapiens, UniProt P37288)
[2] = molecular target: T2, Amine oxidase [flavin-containing] A (Homo sapiens, UniProt P21397); assay type: functional
T2 sequence (P21397 whole entry): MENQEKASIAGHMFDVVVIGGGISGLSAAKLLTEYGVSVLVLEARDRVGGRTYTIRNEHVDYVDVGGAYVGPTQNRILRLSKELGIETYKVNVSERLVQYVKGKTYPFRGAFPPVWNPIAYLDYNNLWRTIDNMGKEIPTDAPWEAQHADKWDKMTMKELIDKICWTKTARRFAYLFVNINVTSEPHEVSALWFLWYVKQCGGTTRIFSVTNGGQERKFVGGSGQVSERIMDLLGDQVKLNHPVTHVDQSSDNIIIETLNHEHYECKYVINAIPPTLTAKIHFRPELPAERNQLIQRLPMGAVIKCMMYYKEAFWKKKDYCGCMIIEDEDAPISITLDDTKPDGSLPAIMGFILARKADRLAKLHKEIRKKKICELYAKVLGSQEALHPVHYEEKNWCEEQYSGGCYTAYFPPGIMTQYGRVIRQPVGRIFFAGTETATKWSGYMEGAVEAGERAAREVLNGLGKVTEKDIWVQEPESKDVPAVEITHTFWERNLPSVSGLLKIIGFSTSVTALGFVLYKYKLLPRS

[3] = molecular target: T3, 5-hydroxytryptamine receptor 3A (Homo sapiens, UniProt P46098); assay type: functional
T3 sequence (P46098 whole entry): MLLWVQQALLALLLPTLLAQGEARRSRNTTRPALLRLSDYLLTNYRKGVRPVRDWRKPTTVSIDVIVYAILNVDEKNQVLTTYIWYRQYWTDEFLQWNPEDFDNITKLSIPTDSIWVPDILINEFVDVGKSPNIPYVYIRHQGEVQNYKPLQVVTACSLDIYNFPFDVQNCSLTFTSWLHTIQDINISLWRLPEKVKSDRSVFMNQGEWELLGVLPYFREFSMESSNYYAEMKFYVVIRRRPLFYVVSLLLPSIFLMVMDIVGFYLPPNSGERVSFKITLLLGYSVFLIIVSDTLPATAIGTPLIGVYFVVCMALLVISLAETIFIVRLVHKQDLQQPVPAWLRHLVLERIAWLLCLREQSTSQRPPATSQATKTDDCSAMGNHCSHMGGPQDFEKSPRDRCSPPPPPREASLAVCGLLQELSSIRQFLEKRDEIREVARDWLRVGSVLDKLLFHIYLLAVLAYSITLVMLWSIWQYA

[4] = molecular target: T4, Muscarinic acetylcholine receptor M2 (Homo sapiens, UniProt P08172); assay type: functional, cell-based
T4 sequence (P08172 whole entry): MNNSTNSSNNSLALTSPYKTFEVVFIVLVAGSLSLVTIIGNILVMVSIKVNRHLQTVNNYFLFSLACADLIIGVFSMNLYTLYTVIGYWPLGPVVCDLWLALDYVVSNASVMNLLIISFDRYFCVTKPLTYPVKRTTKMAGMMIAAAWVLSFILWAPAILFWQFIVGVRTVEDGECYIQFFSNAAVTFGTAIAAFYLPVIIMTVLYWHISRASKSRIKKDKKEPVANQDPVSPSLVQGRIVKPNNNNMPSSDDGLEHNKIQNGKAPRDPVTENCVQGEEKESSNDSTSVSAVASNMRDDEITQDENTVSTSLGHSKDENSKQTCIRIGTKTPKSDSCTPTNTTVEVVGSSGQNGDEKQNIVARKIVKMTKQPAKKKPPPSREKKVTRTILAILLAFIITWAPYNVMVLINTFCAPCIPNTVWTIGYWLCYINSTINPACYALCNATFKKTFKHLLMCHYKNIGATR

[5] = molecular target: Kappa-type opioid receptor (Homo sapiens, UniProt P41145)
[6] = molecular target: Voltage-gated inwardly rectifying potassium channel KCNH2 (Homo sapiens, UniProt Q12809); assay type: functional; conditions: read-out: AC50
[7] = molecular target: T4, Muscarinic acetylcholine receptor M2; assay type: functional, cell-based; remark: listed apart in the source
[8] = molecular target: Neuronal acetylcholine receptor subunit alpha-4 (Homo sapiens, UniProt P43681)
Also: assay procedure not described here.

Sequence of Kappa-type opioid receptor (P41145 whole entry): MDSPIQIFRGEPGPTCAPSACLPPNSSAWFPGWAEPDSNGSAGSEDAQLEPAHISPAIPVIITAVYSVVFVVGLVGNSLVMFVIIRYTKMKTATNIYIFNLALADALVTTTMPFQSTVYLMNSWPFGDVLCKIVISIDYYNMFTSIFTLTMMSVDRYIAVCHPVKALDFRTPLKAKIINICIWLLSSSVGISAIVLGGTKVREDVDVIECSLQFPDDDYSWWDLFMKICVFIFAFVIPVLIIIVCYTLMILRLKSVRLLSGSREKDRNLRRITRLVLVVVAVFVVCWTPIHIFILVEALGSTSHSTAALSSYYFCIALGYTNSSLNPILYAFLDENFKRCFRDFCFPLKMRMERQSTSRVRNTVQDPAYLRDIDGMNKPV
Sequence of Neuronal acetylcholine receptor subunit alpha-4 (P43681 whole entry): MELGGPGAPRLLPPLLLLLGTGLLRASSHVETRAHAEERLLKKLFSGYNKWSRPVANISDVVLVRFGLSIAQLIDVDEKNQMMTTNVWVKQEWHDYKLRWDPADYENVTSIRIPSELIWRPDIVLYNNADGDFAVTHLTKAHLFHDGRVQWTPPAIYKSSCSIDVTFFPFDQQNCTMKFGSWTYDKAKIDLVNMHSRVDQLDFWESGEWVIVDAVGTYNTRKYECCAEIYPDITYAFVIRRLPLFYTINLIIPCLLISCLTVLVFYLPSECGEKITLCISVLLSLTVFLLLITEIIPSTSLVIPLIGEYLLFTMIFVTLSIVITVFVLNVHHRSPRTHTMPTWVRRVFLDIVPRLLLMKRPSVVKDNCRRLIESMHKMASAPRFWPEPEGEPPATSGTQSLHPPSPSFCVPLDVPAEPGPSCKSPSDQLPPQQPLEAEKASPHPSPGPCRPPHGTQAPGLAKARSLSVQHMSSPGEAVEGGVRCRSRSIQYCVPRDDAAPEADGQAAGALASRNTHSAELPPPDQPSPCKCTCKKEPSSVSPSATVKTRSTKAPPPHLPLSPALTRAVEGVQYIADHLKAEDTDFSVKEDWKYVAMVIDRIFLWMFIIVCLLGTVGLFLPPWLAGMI
Sequence of Vasopressin V1a receptor (P37288 whole entry): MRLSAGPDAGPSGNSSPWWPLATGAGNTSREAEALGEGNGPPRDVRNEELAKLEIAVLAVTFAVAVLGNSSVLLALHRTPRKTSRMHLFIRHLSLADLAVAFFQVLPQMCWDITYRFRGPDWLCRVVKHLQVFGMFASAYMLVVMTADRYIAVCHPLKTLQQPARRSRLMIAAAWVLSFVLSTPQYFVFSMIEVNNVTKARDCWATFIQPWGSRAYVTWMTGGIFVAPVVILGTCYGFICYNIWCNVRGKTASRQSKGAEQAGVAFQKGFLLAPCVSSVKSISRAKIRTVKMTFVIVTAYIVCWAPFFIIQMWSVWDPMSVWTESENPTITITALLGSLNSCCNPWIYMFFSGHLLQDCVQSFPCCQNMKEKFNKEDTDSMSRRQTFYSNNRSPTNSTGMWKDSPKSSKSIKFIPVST
Sequence of Melanocortin receptor 3 (P41968 whole entry): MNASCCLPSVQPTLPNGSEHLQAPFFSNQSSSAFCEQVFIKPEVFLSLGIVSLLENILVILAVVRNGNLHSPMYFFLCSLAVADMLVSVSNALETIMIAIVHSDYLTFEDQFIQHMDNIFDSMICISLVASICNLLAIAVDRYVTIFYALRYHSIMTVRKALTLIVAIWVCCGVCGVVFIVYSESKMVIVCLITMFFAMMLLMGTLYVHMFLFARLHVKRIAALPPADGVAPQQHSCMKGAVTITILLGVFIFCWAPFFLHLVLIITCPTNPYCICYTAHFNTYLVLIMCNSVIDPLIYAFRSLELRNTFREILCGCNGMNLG
Sequence of Voltage-gated inwardly rectifying potassium channel KCNH2 (Q12809 whole entry): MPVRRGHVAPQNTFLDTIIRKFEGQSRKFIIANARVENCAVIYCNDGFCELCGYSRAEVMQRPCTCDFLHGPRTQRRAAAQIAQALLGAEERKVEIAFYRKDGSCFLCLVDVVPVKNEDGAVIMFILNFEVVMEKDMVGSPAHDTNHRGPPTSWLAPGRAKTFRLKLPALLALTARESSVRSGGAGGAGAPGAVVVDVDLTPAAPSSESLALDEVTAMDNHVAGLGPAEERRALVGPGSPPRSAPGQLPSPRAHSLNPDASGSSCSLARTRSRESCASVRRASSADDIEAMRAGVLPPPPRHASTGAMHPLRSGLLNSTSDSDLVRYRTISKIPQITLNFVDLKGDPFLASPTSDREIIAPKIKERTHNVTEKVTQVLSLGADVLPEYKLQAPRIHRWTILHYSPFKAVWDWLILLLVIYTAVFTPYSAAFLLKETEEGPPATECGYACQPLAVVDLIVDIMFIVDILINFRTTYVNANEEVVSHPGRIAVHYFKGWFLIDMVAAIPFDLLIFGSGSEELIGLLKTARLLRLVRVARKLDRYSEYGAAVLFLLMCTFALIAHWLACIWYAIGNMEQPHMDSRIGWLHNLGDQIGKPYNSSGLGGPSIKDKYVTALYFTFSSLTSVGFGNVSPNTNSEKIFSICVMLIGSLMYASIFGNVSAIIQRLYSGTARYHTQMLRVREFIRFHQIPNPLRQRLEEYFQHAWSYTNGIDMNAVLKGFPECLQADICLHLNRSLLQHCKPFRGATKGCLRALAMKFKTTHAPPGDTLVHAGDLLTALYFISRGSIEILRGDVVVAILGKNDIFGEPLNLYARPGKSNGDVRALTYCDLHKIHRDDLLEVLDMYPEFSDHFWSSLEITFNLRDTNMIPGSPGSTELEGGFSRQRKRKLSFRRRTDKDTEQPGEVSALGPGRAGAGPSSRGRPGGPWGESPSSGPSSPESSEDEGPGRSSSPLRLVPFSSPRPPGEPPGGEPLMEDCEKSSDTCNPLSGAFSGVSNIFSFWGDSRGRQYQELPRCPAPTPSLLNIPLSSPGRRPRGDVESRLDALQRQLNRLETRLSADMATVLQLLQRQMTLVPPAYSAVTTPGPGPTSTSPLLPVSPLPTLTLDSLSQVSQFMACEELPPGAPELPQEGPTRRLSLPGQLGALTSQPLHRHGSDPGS

Row | SMILES | AC50 [1] [µM] | AC50 (Melanocortin receptor 3) [µM] | AC50 (Vasopressin V1a receptor) [µM] | AC50 [2] [µM] | AC50 [3] [µM] | AC50 [4] [µM] | AC50 [5] [µM] | AC50 [6] [µM] | AC50 [7] [µM] | AC50 [8] [µM]
1 | C[N+]1(C)CCC(OC(=O)C(O)(c2ccccc2)C2CCCC2)C1 (stereo unspecified) [GLYCOPYRRONIUM BROMIDE] | > 30 | > 30 | > 30 |  |  |  |  |  |  | 
2 | O=C(Cc1ccc(-c2ccccc2)cc1)Nc1ccccn1 [DIFENPIRAMIDE] |  |  |  | > 30 | > 30 | > 30 | > 30 | > 30 | > 30 | 
3 | C1CCC(C(CC2CCCCN2)C2CCCCC2)CC1 (stereo unspecified) [PERHEXILINE] | > 30 | 8.28 | > 30 | > 30 | > 30 | 4.9 |  |  |  | > 3
4 | CC[N+]1(C)[C@@H]2CC(OC(=O)[C@H](CO)c3ccccc3)C[C@H]1[C@@H]1O[C@@H]12 (stereo partly specified) [OXITROPIUM] |  |  |  |  |  |  |  | > 30 |  | 
5 | CCC1=C(C)CN(C(=O)NCCc2ccc(S(=O)(=O)NC(=O)N[C@H]3CC[C@H](C)CC3)cc2)C1=O [GLIMEPIRIDE] |  |  |  |  |  |  |  | > 30 |  | 
6 | C=CCc1ccccc1OCC(O)CNC(C)C (stereo unspecified) [ALPRENOLOL] | > 30 | > 30 | > 30 | > 30 | > 30 | > 30 | > 30 | 9.1 | > 30 | > 30
7 | O=C(CCNNC(=O)c1ccncc1)NCc1ccccc1 [NIALAMIDE] |  |  |  |  |  |  |  | > 30 |  | 
8 | OCCN1C[C@H](O)[C@@H](O)[C@H](O)[C@H]1CO [MIGLITOL] |  |  |  |  |  |  |  | > 30 |  | 
9 | O=C(O[C@H]1C[C@H]2CC[C@@H](C1)[N+]21CCCC1)C(O)(c1ccccc1)c1ccccc1 [TROSPIUM] | > 30 | > 30 | > 30 | > 30 | > 30 | > 30 | > 30 | 0.63 | 0.0061 | > 30
10 | CNC1Cc2ccccc2N(C)c2ccccc21 (stereo unspecified) [METAPRAMINE] | > 30 | > 30 | > 30 | > 30 | > 30 | > 30 |  | 5.9 | > 30 | > 30
11 | COc1cc(NC(C)CCCN)c2ncccc2c1 (stereo unspecified) [PRIMAQUINE] | > 30 | > 30 |  |  |  |  |  | 20 |  | 
12 | Oc1c(Cl)cc(Cl)c2cccnc12 [CHLOROXINE] |  |  |  |  |  |  |  | > 30 |  | 
13 | CN(C)[C@@H](c1cccc(O)c1)[C@H]1CCCC[C@H]1O [CIRAMADOL] |  |  |  |  |  |  |  | > 30 |  | 
14 | CC(=O)N[C@@H]1[C@@H](O)[C@H](O)[C@@H](CO)O[C@H]1O [N-ACETYLGLUCOSAMINE] |  |  |  |  |  |  |  | > 30 |  | 
15 | CN(C)S(=O)(=O)c1ccc2c(c1)N(CCCN1CCC(CCO)CC1)c1ccccc1S2 [PIPOTIAZINE] |  |  |  |  |  |  |  | 0.39 |  | 
16 | COc1ccc(CC(C)(C)NC[C@H](O)c2cc(O)cc3c2OCC(=O)N3)cc1 [OLODATEROL] | > 30 | > 30 | > 30 | > 30 | > 30 | > 30 |  | 6.3 | 5.1 | > 30
17 | N[C@H](C(=O)O)[C@H](O)c1ccc(O)c(O)c1 [DROXIDOPA] |  |  |  |  |  |  |  | > 30 |  | 
